From ChEMBL document CHEMBL1129105, “Synthesis and biological evaluation of N-(1-aziridino)-6-fluoro-quinolone-3-carboxylic acids” (1996)

What was measured:
Salmonella typhimurium = assay: In vitro antibacterial activity of compound was measured against gram negative Salmonella Typhimurium 51; type: functional, Salmonella enterica subsp. enterica serovar Typhimurium; conditions: Salmonella enterica
[1] = tested on: Bordetella bronchiseptica; assay: In vitro antibacterial activity of compound was measured against gram negative Bordetella bronchiseptica ATCC 4617; type: functional
Alcaligenes faecalis = assay: In vitro antibacterial activity of compound was measured against gram negative Alcaligenes faecalis 140001; type: functional
Bacteroides fragilis = assay: In vitro antibacterial activity of compound was measured against gram negative Bacteroides fragilis ATCC 25285; type: functional
Streptococcus pyogenes [2] = assay: In vitro antibacterial activity of compound was measured against gram positive Streptococcus pyogenes A 115 ROBB; type: functional
Enterococcus faecalis = assay: In vitro antibacterial activity of compound was measured against gram positive Streptococcus faecalis; type: functional
Serratia marcescens = assay: In vitro antibacterial activity of compound was measured against gram negative Serratia marcescens; type: functional
Pseudomonas aeruginosa = assay: In vitro antibacterial activity of compound was measured against gram negative Pseudomonas pyocyanea NCTC 10490; type: functional, pseudomona pyocyanea
Escherichia coli [3] = assay: In vitro antibacterial activity of compound was measured against gram negative Escherichia coli 6R; type: functional
Staphylococcus aureus [4] = assay: In vitro antibacterial activity of compound was measured against gram positive Staphylococcus aureus SMITH; type: functional
Escherichia coli [5] = assay: In vitro antibacterial activity of compound was measured against gram negative Escherichia coli K12; type: functional
Streptococcus pyogenes [6] = assay: In vitro antibacterial activity of compound was measured against gram positive Streptococcus pyogenes A 118; type: functional
Bacillus subtilis = assay: In vitro antibacterial activity of compound was measured against gram positive Bacillus subtilis ATCC 6633; type: functional
Clostridium perfringens = assay: In vitro antibacterial activity of compound was measured against gram positive Clostridium perfringens 70500; type: functional
Klebsiella pneumoniae = assay: In vitro antibacterial activity of compound was measured against gram negative Klebsiella pneumoniae ATCC 10031; type: functional
[7] = tested on: Mycobacterium tuberculosis; assay: In vitro antibacterial activity of compound was measured against gram positive Mycobacterium tuberculosis Ravenel(bovin); type: functional
Shigella sonnei = assay: In vitro antibacterial activity of compound was measured against gram negative Shigella sonnei; type: functional
Streptococcus pneumoniae = assay: In vitro antibacterial activity of compound was measured against gram positive Streptococcus pneumoniae; type: functional
Proteus vulgaris = assay: In vitro antibacterial activity of compound was measured against gram negative Proteus vulgaris XL; type: functional
Staphylococcus aureus [8] = assay: In vitro antibacterial activity of compound was measured against gram positive Staphylococcus aureus 1110 pen.rez.; type: functional
Proteus inconstans = assay: In vitro antibacterial activity of compound was measured against gram negative Proteus inconstans NCTC 8055; type: functional; conditions: Providencia alcalifaciens
[9] = tested on: Acinetobacter calcoaceticus subsp. anitratus; assay: In vitro antibacterial activity of compound was measured against gram negative Acinetobacter anitratus 150001; type: functional
[10] = tested on: Mycobacterium tuberculosis; assay: In vitro antibacterial activity of compound was measured against gram positive Mycobacterium tuberculosis H37Rv (human); type: functional

Measured: MIC

CN1CCN(c2cc3c(cc2F)c(=O)c(C(=O)O)cn3N2C3CCCCC32)CC1 (stereo unspecified)
25 µg/mL: Salmonella typhimurium | [1] | Bacteroides fragilis
> 100 µg/mL: Enterococcus faecalis
12.5 µg/mL: Shigella sonnei | [9]
6.2 µg/mL: [10]
50 µg/mL: Serratia marcescens | Staphylococcus aureus [4] | Escherichia coli [5] | Proteus vulgaris | Staphylococcus aureus [8]
0.8 µg/mL: Klebsiella pneumoniae
3.1 µg/mL: Bacillus subtilis | [7]
100 µg/mL: all other assays above

O=C(O)c1cn(C2CC2)c2cc(N3CCNCC3)c(F)cc2c1=O [CIPROFLOXACIN]
0.05 µg/mL: [7]
0.12 µg/mL: Staphylococcus aureus [4]
0.008 µg/mL: Klebsiella pneumoniae | Proteus vulgaris
0.03 µg/mL: Serratia marcescens | Bacillus subtilis | Proteus inconstans
0.015 µg/mL: Salmonella typhimurium | Shigella sonnei
1 µg/mL: Alcaligenes faecalis | Streptococcus pyogenes [2] | Enterococcus faecalis | Streptococcus pyogenes [6] | Streptococcus pneumoniae
0.2 µg/mL: [10]
6.2 µg/mL: Bacteroides fragilis
0.25 µg/mL: [1] | Staphylococcus aureus [8] | [9]

CN1CCN(c2c(F)cc3c(=O)c(C(=O)O)cn(N4CC4c4ccccn4)c3c2F)CC1 (stereo unspecified)
25 µg/mL: Salmonella typhimurium | Serratia marcescens | Proteus vulgaris
12.5 µg/mL: Klebsiella pneumoniae
50 µg/mL: Escherichia coli [5] | [7] | Proteus inconstans
100 µg/mL: Clostridium perfringens | Streptococcus pneumoniae | [10]
6.2 µg/mL: Shigella sonnei
> 100 µg/mL: all other assays above

CN1CCN(c2c(F)cc3c(=O)c(C(=O)O)cn(N4CC4c4cccc(C(F)(F)F)c4)c3c2F)CC1 (stereo unspecified)
25 µg/mL: Staphylococcus aureus [4] | Streptococcus pneumoniae
12.5 µg/mL: Klebsiella pneumoniae | Shigella sonnei
50 µg/mL: Salmonella typhimurium | Bacteroides fragilis | Enterococcus faecalis | Escherichia coli [5] | Bacillus subtilis | [7] | Staphylococcus aureus [8]
100 µg/mL: all other assays above

CN1CCN(c2cc3c(cc2F)c(=O)c(C(=O)O)cn3N2CC2c2ccccn2)CC1 (stereo unspecified)
> 100 µg/mL: Alcaligenes faecalis | Proteus vulgaris | Proteus inconstans | [9]
25 µg/mL: [7] | Streptococcus pneumoniae
100 µg/mL: Salmonella typhimurium | [1] | Enterococcus faecalis | Serratia marcescens | Pseudomonas aeruginosa | Escherichia coli [3] | Escherichia coli [5] | Staphylococcus aureus [8]
12.5 µg/mL: Shigella sonnei
50 µg/mL: all other assays above

CN1CCN(c2cc3c(cc2F)c(=O)c(C(=O)O)cn3N2CC2c2cccc(C(F)(F)F)c2)CC1 (stereo unspecified)
12.5 µg/mL: Clostridium perfringens | Klebsiella pneumoniae | Streptococcus pneumoniae | [10]
25 µg/mL: Enterococcus faecalis | Staphylococcus aureus [4] | Streptococcus pyogenes [6] | Shigella sonnei | Staphylococcus aureus [8]
10 µg/mL: Bacillus subtilis
50 µg/mL: [1] | Bacteroides fragilis | Streptococcus pyogenes [2]
100 µg/mL: all other assays above

CN1CCN(c2c(F)cc3c(=O)c(C(=O)O)cn(N4CC4c4ccccc4)c3c2F)CC1 (stereo unspecified)
12.5 µg/mL: Klebsiella pneumoniae
100 µg/mL: [1] | Staphylococcus aureus [4] | Bacillus subtilis | Clostridium perfringens | Staphylococcus aureus [8] | [10]
6.2 µg/mL: Shigella sonnei
50 µg/mL: Streptococcus pyogenes [2] | Serratia marcescens | [7] | Proteus inconstans
25 µg/mL: Salmonella typhimurium | Escherichia coli [5] | Streptococcus pneumoniae | Proteus vulgaris
> 100 µg/mL: all other assays above

CN1CCN(c2c(F)cc3c(=O)c(C(=O)O)cn(N4CC4c4ccc(F)cc4)c3c2F)CC1 (stereo unspecified)
12.5 µg/mL: Escherichia coli [5] | Klebsiella pneumoniae | Shigella sonnei
25 µg/mL: Salmonella typhimurium | Serratia marcescens | Proteus vulgaris | Proteus inconstans
50 µg/mL: [7] | Streptococcus pneumoniae
100 µg/mL: Streptococcus pyogenes [2] | Clostridium perfringens | [10]
> 100 µg/mL: all other assays above

CN1CCN(c2cc3c(cc2F)c(=O)c(C(=O)O)cn3N2CC2c2ccc(F)cc2)CC1 (stereo unspecified)
5 µg/mL: Streptococcus pneumoniae
10 µg/mL: Streptococcus pyogenes [2] | Bacillus subtilis
50 µg/mL: Salmonella typhimurium | Escherichia coli [5] | [9]
100 µg/mL: Alcaligenes faecalis | Serratia marcescens | Pseudomonas aeruginosa | Escherichia coli [3] | Proteus vulgaris | Proteus inconstans
12.5 µg/mL: [1] | [10]
6.2 µg/mL: Clostridium perfringens | Klebsiella pneumoniae | [7]
25 µg/mL: all other assays above

CN1CCN(c2cc3c(cc2F)c(=O)c(C(=O)O)cn3N2CC2c2ccccc2)CC1 (stereo unspecified)
3.1 µg/mL: Klebsiella pneumoniae | [7]
5 µg/mL: Streptococcus pneumoniae
50 µg/mL: Salmonella typhimurium | Escherichia coli [5] | Proteus vulgaris | [9]
100 µg/mL: Alcaligenes faecalis | Serratia marcescens | Pseudomonas aeruginosa | Escherichia coli [3] | Proteus inconstans
10 µg/mL: Streptococcus pyogenes [2] | Streptococcus pyogenes [6]
12.5 µg/mL: Staphylococcus aureus [4]
25 µg/mL: Enterococcus faecalis | Staphylococcus aureus [8]
6.2 µg/mL: all other assays above
